For orientation: Kd means the concentration at which binding is half-saturated. Lower therefore signals a tighter complex.

Here are results for one compound from paper PMC10954694, “Expression of ALS-PFN1 impairs vesicular degradation in iPSC-derived microglia” (Nature Communications, 2024).

Each structure is given as a SMILES string.

Experiment [1] concerns the target T1, profilin-1 (PFN1) M114T (Homo sapiens, UniProt P07737, M114T).
T1 construct: recombinant, SUMO tag cleaved, 15N labeled
Briefly: […]-1H HSQC NMR titration (global fit); DSF. Format: binding.

Experiment [2] addresses T2, profilin-1 (PFN1) WT (Homo sapiens, UniProt P07737).
T2 construct: recombinant, SUMO tag cleaved, 15N labeled
As to the kind of experiment: […]-1H HSQC NMR titration (global fit); DSF. Format: binding.

T2 sequence (P07737 2-140): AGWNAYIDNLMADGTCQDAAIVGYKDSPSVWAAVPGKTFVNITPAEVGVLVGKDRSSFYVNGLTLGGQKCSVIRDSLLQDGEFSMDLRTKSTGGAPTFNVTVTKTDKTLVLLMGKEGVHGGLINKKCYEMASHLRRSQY
T1 sequence (P07737 2-140 M114T): as the sequence (P07737 2-140) above, with M113T counted along it

Take `CCCCCCCC(=O)OC[C@H](COP(=O)(O)O[C@@H]1[C@H](O)[C@H](OP(=O)(O)O)[C@@H](O)[C@H](O)[C@H]1O)OC(=O)CCCCCCC` [PI3P]: the Kd was determined as 370 ± 30 µM in experiment [1] and 1880 ± 190 µM in experiment [2].
